Experimental data taken from patent US11529321B2, “Use of aminomethylenecyclohexane-1,3-dione compound” (WIGEN BIOMEDICINE TECHNOLOGY (SHANGHAI) CO., LTD., priority 2017, dated 2022).

Target: LC3B (Homo sapiens (Human), UniProt Q9GZQ8)
Test: Fluorescence polarization assay, GST-LC3B with FITC-labeled peptide
Protocol: Then the resulting mixture was incubated at 25° C. in the dark.

Row | IC50 [µM] | SMILES
1 | 15 to 100 | O=c1c(=CNc2ccccc2)c(=O)c2cccc3cccc1c32 [Compound 61]
2 | 100 to 1000 | CNC(=O)NC=C1C(=O)CCCC1=O [Compound 25]
3 | 100 to 1000 | Cc1n[nH]c(NC=C2C(=O)CC(C)(C)CC2=O)c1-c1ccccc1 [Compound 17]
4 | 100 to 1000 | Cc1ccc(S(=O)(=O)NNC=C2C(=O)CCCC2=O)cc1 [Compound 26]
5 | 100 to 1000 | CN(C)C=C1C(=O)CC2(CC2)CC1=O [Compound 22]
6 | 15 to 100 | O=C1CC(c2ccccc2)CC(=O)C1=CNc1ccccc1 (centres unmarked) [Compound 11, 5-Phenyl-2-((Phenylamino)Methylene)-Cyclohexane-1,3-Dione]

Row | SMILES | IC50 [µM]
7 | CC1(C)CC(=O)C(=CNCCN2CCN(C(=O)Cc3ccc(F)cc3)CC2)C(=O)C1 [Compound 46] | 100 to 1000
8 | CN(C)C=C1C(=O)CC(c2ccccc2)CC1=O (centres unmarked) [Compound 1, 2-((Dimethylamino)Methylene)-5-Phenyl-Cyclohexane-1,3-Dione] | 3 to 15
